In patent publication US9856259B2, “Heterocyclic compounds and uses thereof” (Plexxikon Inc., priority 2014, dated 2018):

Legend:
[1] = molecular target: T1, BRD4-BD12 (Homo sapiens, UniProt O60885); test: Alphascreen binding assay, BRD4(1 2) H4; settings: BRD4 dual bromodomains with acetylated Histone 4 peptide, read-out: Biochemical activity (IC50 μM) BRD4(1 2) H4
T1 construct: dual bromodomains (BRD4-BD12 (1-477), BRD4-BD12 (1-472)); six-His tag (N); made in house; host or cells: E. coli BL21-CodonPlus (DE3)
Experimental: Binding of compounds of formula (I) with bromodomain 2, 3 4 was assessed using Alphascreen binding assay. The inhibition of the interaction between bromodomain and its acetylated target protein (Filippakopoulos P et al. 2012) was measured quantitatively using recombinant BRD proteins, an acetylated Histone 4 peptide and AlphaScreen™ technology. In absence of inhibition the BRD protein bound to AlphaScreen™ nickel chelate acceptor beads can interact with the acetylated Histone 4 peptide which is immobilized by the AlphaScreen™ Streptavidin coated beads. This interaction brings donor and acceptor beads in proximity. The close proximity allows the singlet oxygen produced by laser excitation of the donor beads to reach the acceptor beads and generate a luminescence signal. BRD inhibitors result in a decrease in the proximity signal through an inhibition of the BRD acetylated peptide interaction.
Recombinant human bromodomains containing the N-terminal bromodomain (BRD2-BD1 (71-194), BRD3-BD1 (24-144) and BRD4-BD1 (44-164)) or dual bromodomains (BRD4-BD12 (1-477), BRD4-BD12 (1-472)) were prepared and purified as described in protein expression and purification session. The peptide is human Histone H41-21K5AcK8AcK12AcK16Ac-Biotin (Anaspec Calif., USA).
Protocol for BRD2, BRD3 and BRD4 assay: All components are prepared in buffer composed of 50 mM HEPES pH 7.5, 100 mM NaCl, 0.01% BSA, 0.01% Triton X-100, 2 mM DTT. 7 μL of Bromodomain protein and 7 μL of peptide are added to wells containing 1 μL of various concentrations of test compounds of formula (I) or DMSO vehicle in an Alphaplate (PerkinElmer Ga., USA) and incubated for 1 hour at room temperature. 4 μL donor and acceptor bead mixture is then added with final concentrations of 7.5 μg/ml. 30 minutes after bead addition, Alpha signal is read on the Envision spectrometer (λEx 680 nm, λEm 520-620 nm). Final concentrations of bromodomain proteins and peptide are as shown below.
All data was normalized to the mean of 16 high and 16 low control wells on each plate. A four parameter curve fit of the following formula was then applied: Y=a+(b−a)/(1+(x/c)^d) Where ‘a’ is the minimum, ‘b’ is the maximum, ‘c’ is the pIC50 and ‘d’ is the Hill slope. Protein Expression and Purification
Recombinant human bromodomains containing the N-terminal bromodomain (BRD2-BD1 (71-194), BRD3-BD1 (24-144) and BRD4-BD1 (44-164)) or dual bromodomains (BRD4-BD12 (1-477), BRD4-BD12 (1-472)) were expressed in E. coli cells (in a modified pET vector) with an N-terminal six-His tag and purified using a combination of both IMAC (Ni-affinity) and size exclusion chromatography steps.
Recombinant BRD proteins were expressed using the E. coli strain BL21-CodonPlus (DE3) (Agilent Technologies CA, USA). Cells were grown in Terrific Broth (TB) media to an OD600 of 1.2 at 37° C. at which temperature was reduced to 25° C., protein was induced with 1.0 mM IPTG for 12-18 hours and harvested by centrifugation at 8000×g for 20 minutes. Cells were re-suspended in 0.1M KPO4 pH 8.0, 250 mM NaCl, 10% Glycerol, 0.75% NP-40, 25 mM Imidazole, 5 mM BME with 0.2 mg/ml Lysosyme, 2.0 mM PMSF, 25 μg/ml DNAse I, incubated on ice for 30 minutes and lyzed with a cell disruptor (MicroFluidics MA, USA). The lysate was clarified by centrifugation at 20,000×g for 2 hours. The protein was captured with Ni-NTA resin (Life Technologies, USA). Contaminating proteins were washed off with 25 mM Tris-HCl pH 8.3, 250 mM NaCl, 12% Glycerol and 50 mM Imidazole. Following 3× wash steps, protein was eluted step wise using a 50 mM HEPES pH 7.5, 500 mM NaCl and 400 mM Imidazole. The protein was further purified using Gel Filtration column 26/600 Superdex 200 (GE Biosciences N.J., USA) in 50 mM HEPES pH 7.5, 250 mM NaCl. The protein was aliquoted and flash-frozen in liquid Nitrogen.

[2] = test system: MV-4-11; test: Oncology cell growth assay, MV-4-11 3 d growth; assay type: cell-based; settings: Homo sapiens, MV4-11; MV-4-11 cells, 72 hours, CellTiter Glo; read-out: Cell activity (IC50 μM) MV-4-11 3 d-Growtb
Experimental: (§1) In this study, we test compounds in different cancer cell lines. MV-4-11 and MOLM-13 are AML cell lines harboring a MLL-AF4 and MLL-AF9 translocation, respectively. MM.1S is a multiple myeloma cell line. SK—N-AS, IMR-32 and SK-N-BE(2) are neuroblastoma cell lines. IMR-32 and SK-N-BE(2) cell lines harbor MYCN amplifications.
(§2) MV-4-11, MM.1S, IMR-32, SK-N-AS and SK-N-BE(2) were obtained from ATCC (IL, USA) and MOLM-13 were purchased from DSMZ (Braunschweig, German). Cells are cultured as recommended by their sources. For growth inhibition studies 3000 cells are seeded in wells of a 96-well plate in 75 μL of culture media. After several hours, growth media containing compounds of formula (I) are added to the wells. Compound at a maximal concentration of 5 mM was serially diluted 1:3 for a total of 8 point titration with DMSO as a control. A 1 μL aliquot of each dilution point is added to 249 μL growth media and 75 μL is added to each well containing cells, providing 10 μM compound at the maximum concentration point. The final concentration of DMSO in all wells is 0.2%. Cells are incubated for 72 hours, and 25 μL of CellTiter Glo Reagent (Promega Ga., USA) is added to each well. Plates are shaken for approximately 10 minutes and chemiluminescent signal is read on Tecan microplate reader. The measured luminescence correlates directly with cell number.
(§3) All data is normalized to the mean of eight DMSO high control wells on each plate. A four parameter curve fit of the following formula was then applied: Y=a+(b−a)/(1+(x/c)^d) Where ‘a’ is the minimum, ‘b’ is the maximum, ‘c’ is the pIC50 and ‘d’ is the Hill slope. […] Myc Reporter Assay

[3] = test system: cancer cell lines / MV-4-11 Myc reporter cell line; test: Bromodomain cell assays of Example 8 (at least one of them); assay type: cell-based; settings: Homo sapiens, MV4-11; at least one of the bromodomain cell assays described in Example 8
Experimental: as §1, §2, §3
In MV-4-11 cells, BRD2, BRD3 and BRD4 bind to the promoter region of MYC and regulate its transcription (Dawson M A et al. 2011). The literature bromodomain inhibitor iBET 151 could disrupt BRD4 recruitment to the MYC promoter and subsequently downregulate c-myc transcription (Dawson M A et al. 2011). Myc protein is a transcription factor that heterodimerizes with an obligatory partner Max and regulates the transcription of genes important for cell proliferation, differentiation, and apoptosis. This Myc reporter assay is used to monitor the inhibitory effect of compound of formula (I) on Myc dependent gene expression. Effective compounds could have potential therapeutic effects in Myc-driven tumors.
The MV-4-11 Myc reporter cell line is established by infecting MV-4-11 with VSV-g pseudotyped lentivirus expressing the firefly luciferase gene under the control of a minimal (m) CMV promoter and tandem repeats of the E-box transcriptional response element (TRE) (Qiagen IL, USA) and selecting cells in 2.5 μg/ml Puromycin.
The MV-4-11 Myc reporter cell line is maintained in Iscove's Modified Dulbecco's Medium containing 10% FBS, 1% PenStep and 2.5 μg/ml Puromycin. Cells are incubated at 37° C. in a humidified atmosphere with 5% CO2. 25,000 cells are seeded in 96-well plate in 50 μL of culture media. After several hours, growth media containing 2× compounds are added to the wells. Compound at a maximal concentration of 5 mM is serially diluted 1:3 for a total of 8 point titration. A 1 μl aliquot of each dilution point is added to 249 μl growth media and 50 μl is added to each well containing cells, providing 10 μM compound at the maximum concentration point. DMSO treated cells serve as a high control and 10 μM JQ1 treated cells serve as a low control. Cells are incubated for a further 24 hours and 25 μL of CellTiter-Fluo Reagent (Promega Ga., USA) is added to each well. Plates are shaken for approximately 2 minutes and incubated at 37° C. for 0.5 hour. Fluorescence signal is read in a Tecan Plate reader (λex=400 nm, λcm=505 nm). 25 μL of One-Glo Reagent (Promega Ga., USA) is then added to the plates. Chemiluminescent signal is read on Tecan plate reader. Values from the wells with no cells are subtracted from all samples for background correction. […]

SMILES	IC50 [1] [µM]	IC50 [2] [µM]	IC50 [3] [µM]
[2H]C([2H])(C1CCC(F)(F)CC1)n1cc(I)c2ncc(-c3c(C)noc3C)nc21 [Compound P-2039, 4-[5-[dideuterio-(4,4-difluorocyclohexyl)methyl]-7-iodo-pyrrolo[2,3-b]pyrazin-3-yl]-3,5-dimethyl-isoxazole]	≤ 1	≤ 1	< 10
Cc1noc(C)c1-c1cnc2c(I)cn([C@@H](C)c3ccccn3)c2n1 [Compound P-2056, 4-[7-iodo-5-[(1S)-1-(2-pyridyl)ethyl]pyrrolo[2,3-b]pyrazin-3-yl]-3,5-dimethyl-isoxazole]	≤ 1	≤ 1	< 10
COC(=O)c1ccc(-c2cn([C@@H](C)c3ccccn3)c3nc(-c4c(C)noc4C)cnc23)cc1 [Compound P-2049, methyl 4-[3-(3,5-dimethylisoxazol-4-yl)-5-[(1S)-1-(2-pyridyl)ethyl]pyrrolo[2,3-b]pyrazin-7-yl]benzoate]	≤ 1	≤ 1	< 10
Cc1noc(C)c1-c1cnc2c(-c3cnn(CC(F)(F)F)c3)nn(CC3CCC(F)(F)CC3)c2c1 [Compound P-2083, 4-[1-[(4,4-difluorocyclohexyl)methyl]-3-[1-(2,2,2-trifluoroethyl)pyrazol-4-yl]pyrazolo[4,3-b]pyridin-6-yl]-3,5-dimethyl-isoxazole]	≤ 1	≤ 1	< 10
COC(=O)Cc1ccc(-c2nn([C@@H](C)c3ccccn3)c3cc(-c4c(C)noc4C)ccc23)cc1 [Compound P-2012, methyl 2-[4-[6-(3,5-dimethylisoxazol-4-yl)-1-[(1S)-1-(2-pyridyl)ethyl]indazol-3-yl]phenyl]acetate]	≤ 1	≤ 1	< 10
Cc1noc(C)c1-c1cnc2c(c1)ncn2C(c1ccccc1)c1ccccn1 (stereo not drawn) [Compound P-2104, 3,5-dimethyl-4-[3-[phenyl(2-pyridyl)methyl]imidazo[4,5-b]pyridin-6-yl]isoxazole]	1 to 10	10 to 200	< 10
COC(=O)c1ccc(-c2nn(C(c3ccccc3)c3ccccn3)c3cc(-c4c(C)noc4C)ccc23)cc1 (stereo not drawn) [Compound P-2006, methyl 4-[6-(3,5-dimethylisoxazol-4-yl)-1-[phenyl(2-pyridyl)methyl]indazol-3-yl]benzoate]	≤ 1	≤ 1	< 10
COC(=O)Cc1ccc(-c2cn(C(c3ccccc3)c3ccccn3)c3nc(-c4c(C)noc4C)cnc23)cc1 (stereo not drawn) [Compound P-2047, methyl 2-[4-[3-(3,5-dimethylisoxazol-4-yl)-5-[phenyl(2-pyridyl)methyl]pyrrolo[2,3-b]pyrazin-7-yl]phenyl]acetate]	≤ 1	≤ 1	< 10
Cc1noc(C)c1-c1cnc2c(-c3cnn(C(F)F)c3)nn(CC3(F)CCCCC3)c2c1 [Compound P-2088, 4-[3-[1-(difluoromethyl)pyrazol-4-yl]-1-[(1-fluorocyclohexyl)methyl]pyrazolo[4,3-b]pyridin-6-yl]-3,5-dimethyl-isoxazole]	≤ 1	≤ 1	< 10
Cc1noc(C)c1-c1cnc2c(-c3cnn(CC(F)(F)F)c3)nn(CC3(F)CCCCC3)c2c1 [Compound P-2089, 4-[1-[(1-fluorocyclohexyl)methyl]-3-[1-(2,2,2-trifluoroethyl)pyrazol-4-yl]pyrazolo[4,3-b]pyridin-6-yl]-3,5-dimethyl-isoxazole]	≤ 1	≤ 1	< 10
Cc1noc(C)c1-c1cnc2c(-c3ccc(C(=O)O)cc3)cn([C@@H](C)c3ccccn3)c2n1 [Compound P-2050, 4-[3-(3,5-dimethylisoxazol-4-yl)-5-[(1S)-1-(2-pyridyl)ethyl]pyrrolo[2,3-b]pyrazin-7-yl]benzoic acid]	≤ 1	≤ 1	< 10
COC(=O)c1ccc(-c2nn([C@@H](C)c3ccccn3)c3cc(-c4c(C)noc4C)ccc23)cc1 [Compound P-2011, methyl 4-[6-(3,5-dimethylisoxazol-4-yl)-1-[(1S)-1-(2-pyridyl)ethyl]indazol-3-yl]benzoate]	≤ 1	≤ 1	< 10
